Several values for one entry are separate records, joined by “and”; a condition that tells them apart may be missing. Identical values can stand only once.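 Test compounds were applied to cells in 96-well plates for 48 hours at 5 doses. GI50 marks 50% less growth. TGI: total growth inhibition.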
How the values were obtained:
Assay in all cases: NCI-60 cell line screen, 48 h
HT29 colon = system: HT29 colon
K-562 leukemia = system: K-562 leukemia
NCI-H226 lung = system: NCI-H226 lung
SF-268 CNS = system: SF-268 CNS
SF-295 CNS = system: SF-295 CNS
SF-539 CNS = system: SF-539 CNS
SNB-19 CNS = system: SNB-19 CNS
ACHN renal = system: ACHN renal
RXF 393 renal = system: RXF 393 renal
U251 CNS = system: U251 CNS

SMILES | TGI (HT29 colon) | TGI (K-562 leukemia) | TGI (NCI-H226 lung) | TGI (SF-268 CNS) | TGI (SF-295 CNS) | TGI (SF-539 CNS) | TGI (SNB-19 CNS) | TGI (ACHN renal) | TGI (RXF 393 renal) | TGI (U251 CNS) | GI50 (ACHN renal) | GI50 (HT29 colon) | GI50 (K-562 leukemia) | GI50 (NCI-H226 lung) | GI50 (RXF 393 renal) | GI50 (SF-268 CNS) | GI50 (SF-295 CNS) | GI50 (SF-539 CNS) | GI50 (SNB-19 CNS) | GI50 (U251 CNS)
Cc1cccc2c3ccc4c(c3n(C)c12)C(=O)C=CC4=O | > 100 µM | > 100 µM | > 100 µM | > 100 µM | > 100 µM | > 100 µM | > 100 µM | – | – | – | – | – | – | – | – | – | – | – | – | –
C[C@]12CCC(=O)C=C1CC[C@@H]1C2CC[C@]2(C)NC(=O)C(C#N)CC12 (stereo partly drawn) | > 100 µM | > 100 µM | > 100 µM | – | > 100 µM | > 100 µM | – | > 100 µM | > 100 µM | > 100 µM | – | – | – | – | – | – | – | – | – | –
CN(C)CCNC(=O)c1cccc2nc3c(Cl)cccc3nc12 | 15.9 µM | 8.74 µM | 13.5 µM | – | > 27.1 µM | 16.8 µM | 57 µM | 30.5 µM | 16.6 µM | 30.5 µM | – | – | – | – | – | – | – | – | – | –
O=[N+]([O-])c1ccc(NSc2ccccc2)cc1 | – | > 100 µM | – | > 100 µM | 79 µM | 44.6 µM | > 100 µM | > 100 µM | 40.9 µM | > 100 µM | – | – | – | – | – | – | – | – | – | –
O=C(O)CCCc1ccc(N(CCCl)CCCl)cc1 | 59.3 µM and 486 µM and 518 µM | 88.5 µM and 462 µM and 625 µM | 42.4 µM and 276 µM and 362 µM | 23.7 µM and 220 µM and 169 µM | – | 26.9 µM and 99.4 µM and 89.6 µM | – | 30.3 µM and 180 µM | 23 µM and 118 µM and 97.7 µM | 29.9 µM and 219 µM and 251 µM | 4.21 µM | 19.9 µM and 173 µM | 21.7 µM and 152 µM | 16.1 µM and 120 µM | 9.53 µM and 57.7 µM | 4.91 µM | 11.7 µM and 64.6 µM | 7.28 µM and 18.2 µM | – | –
O=C(/C=C(\[O-])c1ccccc1)CCCCCCC(=O)/C=C(\[O-])c1ccccc1.O=C(/C=C(\[O-])c1ccccc1)CCCCCCC(=O)/C=C(\[O-])c1ccccc1.O=C(/C=C(\[O-])c1ccccc1)CCCCCCC(=O)/C=C(\[O-])c1ccccc1.[La+3].[La+3] | > 50 µM | > 50 µM | > 50 µM | > 50 µM | – | – | > 50 µM | > 50 µM | > 50 µM | > 50 µM | > 50 µM | > 50 µM | > 50 µM | > 50 µM | > 50 µM | > 50 µM | – | – | > 50 µM | > 50 µM
O=c1[nH]c(=O)n(C2CC(O)C(CO)O2)cc1C#Cc1c(F)c(F)c(F)c(F)c1F (stereo not drawn) | > 100 µM | > 100 µM | > 100 µM | > 100 µM | > 100 µM | > 100 µM | > 100 µM | > 100 µM | – | > 100 µM | – | – | – | – | – | – | – | – | – | –
O=C1NC(=O)C2C(=O)NC(=O)C1C2(c1ccccc1)c1ccc(Cl)cc1 (stereo not drawn) | > 100 µM | > 100 µM | > 100 µM | > 100 µM | > 100 µM | > 100 µM | > 100 µM | > 100 µM | > 100 µM | – | – | – | – | – | – | – | – | – | – | –
O=C(O)/C=C/C(=O)Nc1ncn[nH]1 | > 100 µM | – | > 100 µM | > 100 µM | > 100 µM | > 100 µM | > 100 µM | > 100 µM | > 100 µM | > 100 µM | – | – | – | – | – | – | – | – | – | –
O=C1CCC(NC(=O)c2ccccc2)C(=O)N1 (stereo not drawn) | > 100 µM | – | > 100 µM | > 100 µM | > 100 µM | > 100 µM | > 100 µM | > 100 µM | > 100 µM | > 100 µM | – | – | – | – | – | – | – | – | – | –
COc1cc2c(cc1OC)C1C=NC(C(=O)O)(C2)c2ccccc21 (stereo not drawn) | > 100 µM | > 100 µM | > 100 µM | > 100 µM | > 100 µM | > 100 µM | > 100 µM | – | > 100 µM | > 100 µM | – | – | – | – | – | – | – | – | – | –
COc1ccc(/C=C(/C(=O)O)c2cc(OC)c(OC)c(OC)c2)cc1 | > 100 µM | > 100 µM | > 100 µM | > 100 µM | – | 51.2 µM | > 100 µM | > 100 µM | – | > 100 µM | – | – | – | – | – | – | – | – | – | –
CN1CCCNCCN(CCc2ccccn2)CCCN(C)CC1 | > 100 µM | > 66.1 µM | > 100 µM | > 100 µM | > 100 µM | > 100 µM | > 100 µM | > 100 µM | – | > 100 µM | – | – | – | – | – | – | – | – | – | –
S=C1NCCN1C1=Nc2ccccc2CO1 | > 100 µM | > 100 µM | > 100 µM | > 100 µM | > 100 µM | > 100 µM | > 100 µM | > 100 µM | – | > 100 µM | > 100 µM | > 100 µM | > 100 µM | > 100 µM | – | > 100 µM | > 100 µM | > 100 µM | > 100 µM | > 100 µM
Cc1cccc(C(C)(C)C)c1NC(=O)C(=O)Cc1nc2ccccc2s1 | > 100 µM | > 100 µM | > 100 µM | > 100 µM | > 100 µM | > 100 µM | > 100 µM | > 100 µM | – | > 100 µM | – | – | – | – | – | – | – | – | – | –
CCOC(=O)CCCO | > 100 µM | > 100 µM | – | > 100 µM | > 100 µM | > 100 µM | > 100 µM | > 100 µM | > 100 µM | > 100 µM | – | – | – | – | – | – | – | – | – | –
OCc1c(-c2cccc3ccccc23)sc(-c2cccc3ccccc23)c1CO | 31.5 µM | 31.3 µM | 32.9 µM | 26.9 µM | 28.2 µM | 28.8 µM | 25.4 µM | 25.1 µM | – | 24.9 µM | – | – | – | – | – | – | – | – | – | –
COc1cc2c(c(OC)c1OC)-c1ccc(NCc3ccccc3)c(=O)cc1[C@@H](NC(C)=O)CC2 | 11.9 µM | > 100 µM | 17.1 µM | > 73.5 µM | 18.3 µM | 3.51 µM | > 100 µM | > 66.6 µM | – | 11.8 µM | 1.39 µM | 0.373 µM | 0.381 µM | 1.01 µM | – | 0.788 µM | 0.617 µM | 0.309 µM | 0.638 µM | 0.368 µM
CC1CCC[P+](Cc2ccccc2)(c2ccccc2)CC1 (stereo not drawn) | – | > 100 µM | – | > 100 µM | – | > 100 µM | > 100 µM | > 100 µM | > 100 µM | > 100 µM | – | – | – | – | – | – | – | – | – | –
O=C1c2ccccc2-c2c1c1cc3c(cc1c(=O)n2CCCCl)OCO3 | > 100 µM | > 100 µM | – | > 100 µM | 46.8 µM | > 100 µM | > 100 µM | 98.7 µM | – | 67.4 µM | 24.5 µM | > 100 µM | 99.8 µM | – | – | 51.7 µM | 16.2 µM | 51.4 µM | > 100 µM | 22.8 µM
COc1cccc(-c2nn(-c3ccccc3)cc2-c2ccnc(NCCCNS(=O)(=O)c3cccc(F)c3)c2)c1 | 18.8 µM | > 100 µM | > 100 µM | > 100 µM | > 100 µM | – | – | > 100 µM | > 100 µM | > 100 µM | 3.56 µM | 2.87 µM | 3.31 µM | 6.75 µM | 4.18 µM | 5.63 µM | 2.94 µM | – | – | 4.83 µM

Reference: PubChem BioAssay (NCI)
